Reference: publication PMC5838563, “Compounds producing an effective combinatorial regimen for disruption of HIV‐1 latency” (EMBO Molecular Medicine, 2017)

Assays:
[1] = test system: CD69 expression on PBMCs; assay: CD69 expression by flow cytometry on PBMCs from healthy donors; assay type: cell-based, human
Description: As discussed earlier, an ideal combination of latency‐reversing compounds would reverse HIV‐1 latency in a broad spectrum of infected cells, without causing global T‐cell activation. Accordingly, we examined the effects of PH02 and PEP005 on T‐cell activation and toxicity on primary cells (PBMCs) isolated from healthy donors. […] Consequently, we examined the effect of lower concentrations of PEP005, alone and in combination with PH02 on these primary cells. […] Based on these observations, we expected that 1 nM PEP005 in combination with PH02 should produce negligible toxicity, and have minimal effects on T‐cell activation, while being capable of causing significant reversal of HIV latency (Fig 4F, Appendix Fig S2B).
Figure 9 Effect of PH02 in combination with PEP005 on T‐cell activation Expression of CD69 on PBMCs from three healthy donors (A, B, C; n = 3) was measured by flow cytometry following 24‐h treatment with 3 μM of PH02 alone or in combination with the indicated concentration of PEP005. Positive control samples were treated with PMA. Statistical significance, as determined by one‐way ANOVA, is indicated: *P < 0.05; **P < 0.005; ***P < 0.0005; ****P < 0.00005; ns, no significant difference. The exact P‐values are indicated in Appendix Table S1.
Luciferase assays were performed in 96‐well plate format, where 100 μl of cell culture containing 1 × 10^5 luciferase reporter cells was plated per well. After the indicated time of treatment, 100 μl of luciferase assay reagent (SuperlightTM luciferase reporter Gene Assay Kit; BioAssay Systems) was added per well, and incubated for 2 min at RT, when luciferase activity was measured on a VictorTM X3 Multilabel Plate Reader. Results were presented relative to the positive control samples treated with 50 nM PMA. T‐cell activation was measured using 1 × 10^5 wild‐type Jurkat^Tat cells or PBMCs purified from healthy donors, treated as indicated. After 24 h, cells were incubated with 2.4G2 antibody to block nonspecific binding and further stained with 5 μl of anti‐human CD69 or an IgG1 isotype control antibody conjugated with PE‐Cy^Tm7. After 30‐min incubation on ice, the cells were washed twice with PBS and analyzed using a Becton Dickinson LSRII flow cytometer (BD Biosciences) to determine mean fluorescence intensity (MFI), using FlowJo software. The mean fluorescence intensity (MFI) obtained from cells stained with IgG isotype antibody control was subtracted from that from cells stained with CD69 to compensate for background (MFICD69‐MFIIgG). IL‐2 production was measured in cell culture supernatants using a human IL‐2 ELISA System (eBioscience). […]

[2] = test system: latent HIV‐1 provirus in CD4^+ T cells from aviremic HIV‐infected patients; assay: Intracellular HIV‐1 mRNA in CD4+ T cells of aviremic patients; assay type: cell-based
Procedure: However, 1 nM PEP005 in combination with 1 μM PH02 produced a significant response that was double that produced by 1 μM PH02 on its own (Fig 10A). We confirmed this effect using a quantitative viral outgrowth assay (qVOA) with pools of CD4^+ T cells isolated from HIV‐1‐infected patient samples (Fig EV5, Appendix Table S5). […] We conclude that this combination of treatments may represent a promising candidate therapy to target persistent latent viral infection.
Figure 10 Effect of PH02 and PEP005 on expression of HIV provirus in latently infected cells from patients • Expression of intracellular HIV‐1 mRNA was determined from pools of CD4^+ T cells from aviremic HIV‐infected patients (n = 3, Appendix Table S4) following 24‐h treatment as indicated. Results are shown as fold induction relative to untreated controls. • Quantitative viral outgrowth assays (qVOA) were used to measure reactivation of HIV‐1 provirus from latency in pools of cells from patients. […] Data information: Statistical significance was determined by one‐way ANOVA and indicated as: *P < 0.05; **P < 0.005; ***P < 0.0005; ****P < 0.00005. […]
HIV‐1 RNA was measured from 1 × 10^6 resting CD4^+ T lymphocytes treated with 30 μM of each compound. […] RNA copy number was calculated using a standard curve generated from titrated infections with RGH‐PGK virus (Dahabieh et al, 2013). […]

[3] = 3 μM PH02 or 1 nM PEP005 alone, 24 h

Compound	CD69 induction [1, 3]	PEP005 concentration causing CD69 expression at levels similar to PMA ([1]; alone and in combination with 3 μM PH02, 24 h)	induction of viral RNA ([2]; 1 nM PEP005 alone, 24 h)	CD69 induction ([1]; 3 μM PH02 + 1 nM PEP005, 24 h)	response of combination relative to 1 μM PH02 on its own ([2]; 1 μM PH02 + 1 nM PEP005, 24 h)
C/C=C(/C)C(=O)O[C@H]1C(C)=C[C@]23C(=O)[C@@H](C=C(CO)[C@@H](O)[C@]12O)[C@H]1[C@@H](C[C@H]3C)C1(C)C [PEP005, ingenol‐3‐angelate, reference compound]	did not cause significant CD69 induction	higher than 1 nM	did not cause induction of viral RNA	–	–
CC(=O)Oc1ccccc1N(C=C1Sc2ccccc2C1=O)C(C)=O [PH02, 2‐{acetyl[(3‐oxo‐1‐benzothien‐2(3H)‐ylidene)methyl]amino}phenyl acetate]	did not cause significant CD69 induction	–	–	did not cause significant CD69 induction	double
